Where two headings read alike, the source gives them in different places. Blank lines part the entries; values can stand above or below the molecule they belong to.
Key:
Shay ulcer = experiment: Inhibitory activity on Shay ulcer in rats; format: in vivo, Wistar rats (female); conditions: Rattus norvegicus, sc, read-out: Inhibitory activity on Shay ulcer, ED50
Experimental: Female Wistar rats (140-180 g) were fasted for 44 hours but allowed free access to ater after which the pylorus was ligated as described by Shay et al. in the Gastroenterology, vol. […] Immediately after this ligation, test compound was given subcutaneously. Ten hours later, the animals were sacrificed by an overdose of ether, the stomach was removed and examined for lesions. The logarithm of the sum of each damaged area per rat was referred to as the ulcer index.
The Per Cent Inhibition was calculated as follows: [formula]
The ED50 was read from the semilogarithmic graph on which the Per Cent Inhibition was plotted vs. mg/kg dose.

gastric motility = experiment: Inhibitory activity on gastric motility under stress in rats; format: in vivo, Wistar rats (male); conditions: Rattus norvegicus, read-out: Inhibitory activity on gastric motility, ED50
Experimental: The procedure described by K. Watanabe in the Chemical & Pharmaceutical Bulletin, vol.
Male Wistar rats weighing about 250 g were used. After fasting for 18 hours, rats were fixed on their backs by the limbs with thread on boads and immersed into water to the depth of the xiphoid cartilage. Temperature of water was kept at 22° C.
Pressure change in small rubber balloon fixed in the grandular stomach was recorded with pressure transducer (Nihon Koden Kogyo Co., Ltd., MP-4T). The balloon was inserted from the forestomach under light ether anesthesia. Initial pressure was kept at the height of 10 mmHg.
When the effect of anesthesia and of the operation diminished, test compound was administered into the stomach through the polyethylene tube which was previously inserted into the stomach with the balloon.

gastric secretion = experiment: Inhibitory activity on gastric secretion in rats; format: in vivo, Wistar rats (male); conditions: Rattus norvegicus, sc, read-out: Inhibitory activity on gastric secretion, ED50
Experimental: After fasting for 48 hours, the stomach of male Wistar rats weighing about 200 g were ligated at the pylorus under light ether anesthesia as described by Shay et al. in the Gastroenterology, vol. 5, pp. 43-61 (1945). Immediately after this ligation, test compound was given subcutaneously. Four hours later, the gastric juice in the stomach was collected and centrifuged for each rat and expressed as ml per 100 g of body weight.
The ED50 was calculated in the same manner as Test (I) on Shay ulcer.

[1] = biological target: T1, acetylcholine (contracting action of the guinea pig intestine) (Cavia porcellus); experiment: Acetylcholine antagonistic activity on contraction of guinea pig intestine; conditions: negative log10 of molar concentration reducing effect of a double dose of acetylcholine to that of a single dose, read-out: Acetylcholine antagonistic activity, pA2 (converted)
T1 construct: contracting action of the guinea pig intestine; from tissue; host or cells: guinea pig intestine
T1 sequence (H0W1Z3 1-590): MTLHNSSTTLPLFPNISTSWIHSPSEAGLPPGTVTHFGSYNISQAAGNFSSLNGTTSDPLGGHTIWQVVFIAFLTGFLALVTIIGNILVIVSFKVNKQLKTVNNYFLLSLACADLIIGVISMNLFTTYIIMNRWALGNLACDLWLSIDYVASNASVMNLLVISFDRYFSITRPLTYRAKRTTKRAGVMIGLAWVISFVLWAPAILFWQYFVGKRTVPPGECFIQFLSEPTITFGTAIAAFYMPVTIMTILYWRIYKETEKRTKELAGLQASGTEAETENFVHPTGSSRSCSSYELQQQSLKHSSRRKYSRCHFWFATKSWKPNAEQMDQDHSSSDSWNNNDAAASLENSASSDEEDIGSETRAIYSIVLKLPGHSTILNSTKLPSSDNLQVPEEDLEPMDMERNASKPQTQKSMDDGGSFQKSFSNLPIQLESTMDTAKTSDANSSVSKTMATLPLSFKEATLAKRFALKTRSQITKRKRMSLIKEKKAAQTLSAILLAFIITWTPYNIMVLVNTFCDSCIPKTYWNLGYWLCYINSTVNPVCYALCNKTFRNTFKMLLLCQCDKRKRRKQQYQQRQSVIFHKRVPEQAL
Experimental: Acetylcholine antagonistic activity was tested according to the method described by J. M. Van Rossum et al. in the Archives Internationales de Pharmacodynamie et de Therapie, vol. 143, pp. 240-246 and pp. 299-330 (1963). The pA2 is the negative of the logarithm, to the base 10, of the molar concentration of the test compound which reduced the effect of a double dose of acetylcholine on contracting action of the guinea pig intestine compared with that of a single dose.

Compound: CN1[C@@H]2CC[C@H]1C[C@@H](OC(=O)C(CO)c1ccccc1)C2 (stereo partly shown) [Atropine, reference compound]
- ED50 (Shay ulcer; 10 h): 0.5 mg/kg
- ED50 (gastric motility): ≤ 3 mg/kg
- ED50 (gastric secretion; 4 h): 0.12 mg/kg

- Kb [1]: 6.31 µM
Compound: O=C(O)/C=C\C(=O)O.c1csc(Cc2ccccc2OCC2CNCCO2)c1 (stereo not shown) [Compound A, 2-[2-(2-thenyl)phenoxymethyl]morpholine maleate]
- ED50 (Shay ulcer; subcutaneous, immediately after pylorus ligation, examined 10 hours later): 5.5 mg/kg
- ED50 (gastric motility; administered into the stomach, stress by water immersion at 22° C): 2.1 mg/kg
- ED50 (gastric secretion; subcutaneous, immediately after pylorus ligation, gastric juice collected 4 hours later): 4.5 mg/kg

— US4005084A, “Thienylmethyl phenoxy morpholine compounds” (Yoshitomi Pharmaceutical Industries, Ltd., priority 1975, dated 1977)
